According to the NIST ThermoML archive (doi:10.1021/je900414p):

Test: xn = mol fraction of the nth substance listed
Conditions: Liquid

CCOS(=O)(=O)[O-].CCn1cc[n+](C)c1 [1-ethyl-3-methylimidazolium ethyl sulfate] + CCO
mass density [kg/m3]
Conditions | 100 kPa | 2500 kPa | 5000 kPa | 10000 kPa | 15000 kPa | 20000 kPa | 25000 kPa | 30000 kPa | 35000 kPa
283.15 K, x1 = 0.05056 | 868.1 | 870 | 871.83 | 875.33 | 878.74 | 882.02 | 885.17 | 888.22 | 891.19
283.15 K, x1 = 0.103 | 925.77 | 927.45 | 929.13 | 932.41 | 935.57 | 938.63 | 941.59 | 944.47 | 947.26
283.15 K, x1 = 0.1247 | 946.96 | 948.54 | 950.16 | 953.34 | 956.4 | 959.38 | 962.25 | 965.06 | 967.8
283.15 K, x1 = 0.2126 | 1015.49 | 1016.98 | 1018.48 | 1021.37 | 1024.17 | 1026.89 | 1029.52 | 1032.11 | 1034.62
283.15 K, x1 = 0.2919 | 1063.41 | 1064.67 | 1066.03 | 1068.69 | 1071.27 | 1073.82 | 1076.29 | 1078.72 | 1081.08
283.15 K, x1 = 0.3185 | 1076.89 | 1078.19 | 1079.51 | 1082.11 | 1084.66 | 1087.15 | 1089.57 | 1091.95 | 1094.27
283.15 K, x1 = 0.4198 | 1120.15 | 1121.36 | 1122.61 | 1125.05 | 1127.44 | 1129.77 | 1132.05 | 1134.29 | 1136.48
283.15 K, x1 = 0.4847 | 1142.52 | 1143.68 | 1144.88 | 1147.23 | 1149.51 | 1151.78 | 1153.99 | 1156.16 | 1158.29
283.15 K, x1 = 0.5713 | 1167.9 | 1169.02 | 1170.16 | 1172.41 | 1174.61 | 1176.78 | 1178.91 | 1181.01 | 1183.08
283.15 K, x1 = 0.6827 | 1194.68 | 1195.76 | 1196.85 | 1199 | 1201.12 | 1203.21 | 1205.24 | 1207.27 | 1209.25
283.15 K, x1 = 0.7919 | 1216.13 | 1217.15 | 1218.19 | 1220.26 | 1222.32 | 1224.34 | 1226.31 | 1228.28 | 1230.19
283.15 K, x1 = 0.9317 | 1237.97 | 1238.92 | 1239.94 | 1241.93 | 1243.92 | 1245.88 | 1247.81 | 1249.69 | 1251.56
293.15 K, x1 = 0.05056 | 860.03 | 861.91 | 863.83 | 867.52 | 871.06 | 874.47 | 877.74 | 880.91 | 883.98
293.15 K, x1 = 0.103 | 917.84 | 919.6 | 921.37 | 924.78 | 928.08 | 931.25 | 934.32 | 937.28 | 940.18
293.15 K, x1 = 0.1247 | 939.1 | 940.76 | 942.46 | 945.77 | 948.96 | 952.04 | 955.03 | 957.93 | 960.74
293.15 K, x1 = 0.2126 | 1007.62 | 1009.27 | 1010.81 | 1013.8 | 1016.71 | 1019.53 | 1022.26 | 1024.93 | 1027.53
293.15 K, x1 = 0.2919 | 1055.3 | 1056.61 | 1058.04 | 1060.8 | 1063.5 | 1066.12 | 1068.67 | 1071.18 | 1073.62
293.15 K, x1 = 0.3185 | 1069.32 | 1070.62 | 1071.98 | 1074.68 | 1077.32 | 1079.89 | 1082.37 | 1084.82 | 1087.22
293.15 K, x1 = 0.4198 | 1112.7 | 1113.96 | 1115.24 | 1117.75 | 1120.22 | 1122.63 | 1124.97 | 1127.27 | 1129.54
293.15 K, x1 = 0.4847 | 1135.13 | 1136.31 | 1137.55 | 1139.97 | 1142.34 | 1144.68 | 1146.94 | 1149.19 | 1151.37
293.15 K, x1 = 0.5713 | 1160.59 | 1161.75 | 1162.92 | 1165.25 | 1167.52 | 1169.75 | 1171.93 | 1174.07 | 1176.19
293.15 K, x1 = 0.6827 | 1187.41 | 1188.51 | 1189.64 | 1191.86 | 1194.04 | 1196.18 | 1198.27 | 1200.33 | 1202.37
293.15 K, x1 = 0.7919 | 1208.95 | 1210 | 1211.08 | 1213.21 | 1215.31 | 1217.38 | 1219.4 | 1221.4 | 1223.38
293.15 K, x1 = 0.9317 | 1230.93 | 1231.9 | 1232.97 | 1235.05 | 1237.08 | 1239.09 | 1241.05 | 1242.97 | 1244.9
298.15 K, x1 = 0.05056 | 855.98 | 857.88 | 859.83 | 863.62 | 867.22 | 870.7 | 874.05 | 877.28 | 880.4
298.15 K, x1 = 0.103 | 913.93 | 915.61 | 917.4 | 920.89 | 924.24 | 927.48 | 930.6 | 933.63 | 936.57
298.15 K, x1 = 0.1247 | 935.16 | 936.81 | 938.54 | 941.91 | 945.16 | 948.3 | 951.34 | 954.29 | 957.15
298.15 K, x1 = 0.2126 | 1003.9 | 1005.45 | 1007.01 | 1010.07 | 1013.02 | 1015.88 | 1018.67 | 1021.38 | 1024.03
298.15 K, x1 = 0.2919 | 1052 | 1052.97 | 1054.41 | 1057.22 | 1059.95 | 1062.62 | 1065.22 | 1067.75 | 1070.23
298.15 K, x1 = 0.3185 | 1065.62 | 1066.9 | 1068.3 | 1071.05 | 1073.73 | 1076.33 | 1078.88 | 1081.37 | 1083.79
298.15 K, x1 = 0.4198 | 1109.11 | 1110.35 | 1111.65 | 1114.21 | 1116.72 | 1119.15 | 1121.54 | 1123.89 | 1126.17
298.15 K, x1 = 0.4847 | 1131.56 | 1132.76 | 1133.99 | 1136.46 | 1138.86 | 1141.21 | 1143.53 | 1145.8 | 1148.02
298.15 K, x1 = 0.5713 | 1157.07 | 1158.2 | 1159.39 | 1161.74 | 1164.05 | 1166.31 | 1168.52 | 1170.7 | 1172.85
298.15 K, x1 = 0.6827 | 1183.93 | 1185.01 | 1186.16 | 1188.41 | 1190.6 | 1192.77 | 1194.89 | 1197 | 1199.05
298.15 K, x1 = 0.7919 | 1205.61 | 1206.51 | 1207.59 | 1209.76 | 1211.88 | 1213.98 | 1216.03 | 1218.05 | 1220.04
298.15 K, x1 = 0.9317 | 1227.5 | 1228.53 | 1229.57 | 1231.66 | 1233.72 | 1235.74 | 1237.73 | 1239.69 | 1241.63
303.15 K, x1 = 0.05056 | 851.9 | 853.85 | 855.87 | 859.72 | 863.43 | 866.98 | 870.39 | 873.69 | 876.89
303.15 K, x1 = 0.103 | 910.06 | 911.7 | 913.54 | 917.1 | 920.52 | 923.82 | 927 | 930.09 | 933.1
303.15 K, x1 = 0.1247 | 931.25 | 932.93 | 934.69 | 938.12 | 941.44 | 944.64 | 947.74 | 950.74 | 953.67
303.15 K, x1 = 0.2126 | 1000.1 | 1001.68 | 1003.26 | 1006.36 | 1009.37 | 1012.29 | 1015.12 | 1017.88 | 1020.58
303.15 K, x1 = 0.2919 | 1048.63 | 1049.46 | 1050.92 | 1053.74 | 1056.51 | 1059.18 | 1061.79 | 1064.33 | 1066.82
303.15 K, x1 = 0.3185 | 1061.99 | 1063.29 | 1064.7 | 1067.49 | 1070.22 | 1072.86 | 1075.44 | 1077.96 | 1080.42
303.15 K, x1 = 0.4198 | 1105.54 | 1106.82 | 1108.14 | 1110.73 | 1113.28 | 1115.76 | 1118.18 | 1120.55 | 1122.89
303.15 K, x1 = 0.4847 | 1128.01 | 1129.22 | 1130.5 | 1132.99 | 1135.43 | 1137.83 | 1140.16 | 1142.46 | 1144.71
303.15 K, x1 = 0.5713 | 1153.59 | 1154.71 | 1155.92 | 1158.31 | 1160.66 | 1162.94 | 1165.19 | 1167.4 | 1169.59
303.15 K, x1 = 0.6827 | 1180.46 | 1181.59 | 1182.73 | 1185 | 1187.24 | 1189.45 | 1191.6 | 1193.74 | 1195.84
303.15 K, x1 = 0.7919 | 1202.24 | 1203.1 | 1204.19 | 1206.38 | 1208.54 | 1210.64 | 1212.73 | 1214.77 | 1216.82
303.15 K, x1 = 0.9317 | 1224.05 | 1225.06 | 1226.12 | 1228.23 | 1230.32 | 1232.36 | 1234.37 | 1236.36 | 1238.34
